Results published in patent EP0831769B2, “NOVEL USES FOR THYROID HORMONES OR THYROID HORMONE-LIKE COMPOUNDS” (Lavin, Dr., Thomas N., priority 1995, dated 1996).
Values joined by “and” are separate entries in the source; they are usually repeats but may differ in a detail not shown here. Equal entries are not always repeated. “Also recorded” adds a separate entry of the source. Where two headings read alike, the source gives them in different places.

Tests used:
human thyroid receptor = target: T1, human thyroid receptor (Homo sapiens, UniProt P10828); test: Thyroid hormone receptor binding affinity
T1 sequence (P10828 1-461): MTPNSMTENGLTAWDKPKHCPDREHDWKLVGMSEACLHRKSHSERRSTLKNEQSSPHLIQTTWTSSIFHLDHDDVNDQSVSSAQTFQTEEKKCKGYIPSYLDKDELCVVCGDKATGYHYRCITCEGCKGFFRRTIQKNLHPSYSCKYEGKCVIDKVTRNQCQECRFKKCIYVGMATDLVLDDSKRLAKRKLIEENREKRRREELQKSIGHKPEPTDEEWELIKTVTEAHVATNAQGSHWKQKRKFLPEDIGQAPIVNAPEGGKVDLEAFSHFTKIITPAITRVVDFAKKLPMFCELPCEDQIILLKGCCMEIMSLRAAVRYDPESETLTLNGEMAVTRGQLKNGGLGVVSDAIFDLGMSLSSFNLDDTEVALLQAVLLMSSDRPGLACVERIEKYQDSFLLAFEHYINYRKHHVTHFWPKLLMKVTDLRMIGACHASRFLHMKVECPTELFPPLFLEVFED
Excerpt: Partial agonist/antagonists also may exist. (Suitable ligands may be agonists or antagonists).

Skin-2 model ZK1301 = test: Skin-2 model: mRNA expression by RT-PCR, semi-quantitative;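 further: Three-dimensional human skin equivalent of dermal fibroblasts and foreskin keratinocytes at an air-liquid interface, exposed for 10 or 48 h, mRNA measured in total RNA by RT-PCR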
Excerpt: A novel synthetic human skin, Skin- 2 model ZK1301 (Advanced Tissue Sciences, La Jolla (USA)) is composed of a three dimensional human skin culture consisting of a dermal fibroblast layer and human foreskin keratinocytes which can be grown with an air-keratinocyte interface to promote normal differentiation and cornification of the model skin.
The following were components of the Skin^2 kits: 9x9 mm skin tissues on agarose, 6-well plates, and Millicell inserts. Two media based on Dulbecco's Modification of Eagle's medium were also included: Maintenance medium (containing 5% fetal calf serum) and serum-free assay medium.
All-trans-retinoic acid, 1,25-(OH)2-vitamin D3, and betamethasone were purchased from Sigma Chemicals (Stockholm). Upon arrival the skin tissues were placed dermal-side down into the center of a Millicell in a 6-well plate well containing prewarmed maintenance medium. The tissues were incubated at 37°C in an atmosphere of 5% CO2 in air. After 24 h the maintenance medium was exchanged.
Following another 24 h the Maintenance medium was removed and replaced by Serum- free assay medium containing 5% "stripped" fetal calf serum. Substances were added within 1 h after medium exchange and the tissues were incubated for 10 or 48 h in the presence of the substances. Medium and substances were changed after 24 h incubation. The cells were grown at an air - liquid interface. At the end of the 48 h-incubation period two tissues were pooled together in a sterile plastic centrifugation tube. The tissue was snap frozen on solid ice (-60°C) and stored at -70°C until used. Duplicate samples were included for each treatment.
Total RNA was extracted from Skin^2 -samples and human skin biopsies using Ultraspec II (Biotecx Laboratories, Inc., Houston, TX). One ml of Ultraspec II was added to each sample which were homogenized by using a Polytron for 2x20 sec at setting 6. Total RNA was extracted according to the protocol supplied by the manufacturer. […] After incubation at 37°C for 60 min, the reaction was stopped by heating at 75°C for 10 min and the mixture stored at -70°C until cDNA amplification was performed.
The tubes were placed in a Thermal cycler (Perkin-Elmer) programmed as follows: (a) 90°C for 90 s; (b) variable number of cycles (see Table 1) of the following sequential steps: 60 s at 94°C, 75 s at annealing temp (see Table 1), 90 s at 72°C; and (c) 7 min at 72°C. […] Gels were recorded by videoprints. The amount of product was estimated on the videopoint or directly on the gel. The amount of transcripts in each lane were compared in relation to two control samples run in parallel.

Hairless mice SKH-1 = test: Photodamaged skin: UV-B irradiated hairless mice treated with cream for 16 weeks; format: in vivo; details: cream for 16 weeks after 12 weeks of UV-B irradiation, compared to untreated irradiated animals
Method: Hairless mice SKH-1 are UV-B irradiated according to the schedule of (22). After 12 weeks of irradiation, significant wrinkling results. The mice are treated with the thyroid hormone Triac-containing cream for a period of 16 weeks after irradiation. The degree of wrinkling appearing on the irradiated mice is compared to untreated, irradiated animals to which the appropriate pharmaceutical base is not applied.

phosphodiesterase = details: in vitro, isolated adipocytes; FR2354101; cited from earlier work
[1] = Table 3, Skin-2 model, 10uM, transcriptional response score
[2] = Table 3, Skin-2 model, 10uM, transcriptional response score, listed as L-T-I
[3] = Skin-2 model, 1 µM, semi quantitative mRNA change vs control
[4] = Table 3, Skin-2 model, 1 µM, transcriptional response score
[5] = Skin-2 model, 50 nM, semi quantitative mRNA change vs control
[6] = Table 3, Skin-2 model, 50nM, transcriptional response score

N[C@@H](Cc1ccc(Oc2ccc(O)cc2)c(I)c1)C(=O)O [L-T-1, 3-idodo-L-Thronine]
Ki (human thyroid receptor): 20000 nM
binding to the thyroid hormone receptor (in words) (human thyroid receptor; b58: even at the tested ten micromolar concentration): no thyroid hormone receptor binding activity; also recorded: binds poorly
col a-1 (Skin-2 model ZK1301; [1]): 0.5
col a-3 (Skin-2 model ZK1301; [1]): 0.5
gf(pdgf-L) (Skin-2 model ZK1301; [1]): 1
k1 (Skin-2 model ZK1301; [1]): 0
k10 (Skin-2 model ZK1301; [1]): 0
k16 (Skin-2 model ZK1301; [1]): 0
scce (Skin-2 model ZK1301; [1]): 1
trans gk (Skin-2 model ZK1301; [1]): 1
col a-1 (Skin-2 model ZK1301; [2]): only modest effects
col a-3 (Skin-2 model ZK1301; [2]): only modest effects
k1 (Skin-2 model ZK1301; [2]): no inhibition
k10 (Skin-2 model ZK1301; [2]): no inhibition
scce (Skin-2 model ZK1301; [2]): positive effect
trans gk (Skin-2 model ZK1301; [2]): positive effect

C=C1C(=CC=C2CCCC3(C)C2CCC3C(C)CCCC(C)(C)O)CC(O)CC1O (stereo not shown) [vit D, 1,25-(OH)2-vitamin D3]
IL-6 (Skin-2 model ZK1301; [3]): -1
col 1A-1 (Skin-2 model ZK1301; [3]): 2
col 3A-1 (Skin-2 model ZK1301; [3]): 2
crabp-II (Skin-2 model ZK1301; [3]): -1
ctgf(pdgf-L) (Skin-2 model ZK1301; [3]): 0
k1 (Skin-2 model ZK1301; [3]): 0
k10 (Skin-2 model ZK1301; [3]): -1
k16 (Skin-2 model ZK1301; [3]): 0
k19 (Skin-2 model ZK1301; [3]): 0
scce (Skin-2 model ZK1301; [3]): 0
tgfbeta-2 (Skin-2 model ZK1301; [3]): 2
trans gk (Skin-2 model ZK1301; [3]): -1

O=C(O)c1cc(I)c(Oc2ccc(O)c(I)c2)c(I)c1 [compound number 2]
Ki (human thyroid receptor): 0.1 nM
col a-1 (Skin-2 model ZK1301; [4]): 2
col a-3 (Skin-2 model ZK1301; [4]): 1
gf(pdgf-L) (Skin-2 model ZK1301; [4]): 1
k1 (Skin-2 model ZK1301; [4]): -1
k10 (Skin-2 model ZK1301; [4]): 0
k16 (Skin-2 model ZK1301; [4]): 0
scce (Skin-2 model ZK1301; [4]): 0.5
trans gk (Skin-2 model ZK1301; [4]): 0.5

N[C@@H](Cc1cc(I)c(Oc2ccc(O)c(I)c2)c(I)c1)C(=O)O [compound number 1, Trilodothyronine]
col a-1 (Skin-2 model ZK1301; [4]): 1
col a-3 (Skin-2 model ZK1301; [4]): 2
gf(pdgf-L) (Skin-2 model ZK1301; [4]): 1
k1 (Skin-2 model ZK1301; [4]): -2
k10 (Skin-2 model ZK1301; [4]): -0.5
k16 (Skin-2 model ZK1301; [4]): 0
scce (Skin-2 model ZK1301; [4]): 0.5
trans gk (Skin-2 model ZK1301; [4]): 0

N[C@@H](Cc1cc(I)c(Oc2cc(I)c(O)c(I)c2)c(I)c1)C(=O)O [compound number 3, Thyroxine]
col a-1 (Skin-2 model ZK1301; [4]): 2
col a-3 (Skin-2 model ZK1301; [4]): 0.5
gf(pdgf-L) (Skin-2 model ZK1301; [4]): 1
k1 (Skin-2 model ZK1301; [4]): -2
k10 (Skin-2 model ZK1301; [4]): -1
k16 (Skin-2 model ZK1301; [4]): 0
scce (Skin-2 model ZK1301; [4]): 0
trans gk (Skin-2 model ZK1301; [4]): 1

Cc1cc(NC(=O)C(=O)O)cc(C)c1Oc1ccc(O)c(C(C)C)c1 [compound number 7, N-[3,5-Dimethy-4-(4'-hydroxy-3'-isopropylphenoxy)-phenyl]oxamic Acid]
Ki (human thyroid receptor): 0.1 nM
col a-1 (Skin-2 model ZK1301; [4]): 1
col a-3 (Skin-2 model ZK1301; [4]): 1
gf(pdgf-L) (Skin-2 model ZK1301; [4]): 1
k1 (Skin-2 model ZK1301; [4]): -1
k10 (Skin-2 model ZK1301; [4]): 1
k16 (Skin-2 model ZK1301; [4]): 0.5
scce (Skin-2 model ZK1301; [4]): -1
trans gk (Skin-2 model ZK1301; [4]): -1

Cc1cc(C[C@H](N)C(=O)O)cc(C)c1Oc1ccc(O)c(C(C)C)c1 [compound number 6, 1-3,5-Dimethyl-3'-isopropylthyronine]
Ki (human thyroid receptor; Table 3, binding affinity to the human thyroid receptor, read-out: Ki): 75 nM
col a-1 (Skin-2 model ZK1301; [4]): 1
col a-3 (Skin-2 model ZK1301; [4]): 0.5
gf(pdgf-L) (Skin-2 model ZK1301; [4]): 1
k1 (Skin-2 model ZK1301; [4]): -2
k10 (Skin-2 model ZK1301; [4]): -1
k16 (Skin-2 model ZK1301; [4]): 0
scce (Skin-2 model ZK1301; [4]): -1
trans gk (Skin-2 model ZK1301; [4]): -2

C[C@H]1C[C@H]2[C@@H]3CCC4=CC(=O)C=C[C@]4(C)[C@@]3(F)[C@@H](O)C[C@]2(C)[C@@]1(O)C(=O)CO [betameth, betamethasone]
IL-6 (Skin-2 model ZK1301; [3]): -2
col 1A-1 (Skin-2 model ZK1301; [3]): 0.5
col 3A-1 (Skin-2 model ZK1301; [3]): -0.5
crabp-II (Skin-2 model ZK1301; [3]): -1
ctgf(pdgf-L) (Skin-2 model ZK1301; [3]): 1
k1 (Skin-2 model ZK1301; [3]): -3
k10 (Skin-2 model ZK1301; [3]): -0.5
k16 (Skin-2 model ZK1301; [3]): -1
k19 (Skin-2 model ZK1301; [3]): -0.5
scce (Skin-2 model ZK1301; [3]): -1
tgfbeta-2 (Skin-2 model ZK1301; [3]): 0
trans gk (Skin-2 model ZK1301; [3]): -1

CC1=C(/C=C/C(C)=C/C=C/C(C)=C/C(=O)O)C(C)(C)CCC1 [RA, All-trans-retinoic acid]
IL-6 (Skin-2 model ZK1301; [3]): -1
col 1A-1 (Skin-2 model ZK1301; [3]): 2
col 3A-1 (Skin-2 model ZK1301; [3]): 1
crabp-II (Skin-2 model ZK1301; [3]): 1
ctgf(pdgf-L) (Skin-2 model ZK1301; [3]): 1
k1 (Skin-2 model ZK1301; [3]): -3
k10 (Skin-2 model ZK1301; [3]): -1
k16 (Skin-2 model ZK1301; [3]): -0.5
k19 (Skin-2 model ZK1301; [3]): -1
tgfbeta-2 (Skin-2 model ZK1301; [3]): 2
trans gk (Skin-2 model ZK1301; [3]): -3

NC(Cc1cc(Br)c(Oc2ccc(O)c(Cc3ccc(=O)[nH]n3)c2)c(Br)c1)C(=O)O (stereo not shown) [compound number 5]
Ki (human thyroid receptor): 8 nM
relative selectivity of gene responses (Skin-2 model ZK1301; Skin-2 model, 1 µM, epidermal differentiation genes versus collagen genes): relative selectively for keratin 1, tranglutaminase K and SCCE responses over collagen responses
col a-1 (Skin-2 model ZK1301; [4]): 0
col a-3 (Skin-2 model ZK1301; [4]): 0
k16 (Skin-2 model ZK1301; [4]): -0.5

O=C(O)Cc1cc(I)c(Oc2ccc(O)c(I)c2)c(I)c1 [Triac, tri-iodothyroacetic acid]
skin collagen (Hairless mice SKH-1): increase
wrinkle pattern of the animals (Hairless mice SKH-1): significant decrease
dose range at which phosphodiesterase inhibition and cyclic AMP increase occur (phosphodiesterase): approximately 10^-4 M
ctgf(pdgf-L) (Skin-2 model ZK1301; [5]): 1
k16 (Skin-2 model ZK1301; [5]): -1
k19 (Skin-2 model ZK1301; [5]): -1
IL-6 (Skin-2 model ZK1301; [3]): -0.5
col 1A-1 (Skin-2 model ZK1301; [3]): 2
col 3A-1 (Skin-2 model ZK1301; [3]): 1
crabp-II (Skin-2 model ZK1301; [3]): -1
k1 (Skin-2 model ZK1301; [3]): -2
k10 (Skin-2 model ZK1301; [3]): -2
k16 (Skin-2 model ZK1301; [3]): -0.5
k19 (Skin-2 model ZK1301; [3]): -1
scce (Skin-2 model ZK1301; [3]): -2
tgfbeta-2 (Skin-2 model ZK1301; [3]): 2
trans gk (Skin-2 model ZK1301; [3]): -3
k1 (Skin-2 model ZK1301; [6]): -2
k16 (Skin-2 model ZK1301; [6]): 0
col a-1 (Skin-2 model ZK1301; [4]): 1
col a-3 (Skin-2 model ZK1301; [4]): 1
gf(pdgf-L) (Skin-2 model ZK1301; [4]): 2 and 1
k1 (Skin-2 model ZK1301; [4]): -1
k16 (Skin-2 model ZK1301; [4]): 0
trans gk (Skin-2 model ZK1301; [4]): -0.5
